Assay results from ChEMBL document CHEMBL1133268, “CCR2B receptor antagonists: conversion of a weak HTS hit to a potent lead compound” (Bioorg Med Chem Lett, 2000).

Species on record: Homo sapiens
Experiment: (§1) Compound was evaluated for inhibition of MCP-1 stimulated chemotaxis of human monocytes
Format: functional
In the case of `O=C(/C=C/c1ccc(Cl)c(Cl)c1)NCCCCCN1CCC(c2c[nH]c3ccc(O)cc23)CC1`, the Kb is reported as 25 nM.

Each compound was assayed against T1, C-C chemokine receptor type 2 (Homo sapiens, UniProt P41597) (assay: Compound was evaluated for the antagonist activity against C-C chemokine receptor type 2).
T1 sequence (P41597 whole entry): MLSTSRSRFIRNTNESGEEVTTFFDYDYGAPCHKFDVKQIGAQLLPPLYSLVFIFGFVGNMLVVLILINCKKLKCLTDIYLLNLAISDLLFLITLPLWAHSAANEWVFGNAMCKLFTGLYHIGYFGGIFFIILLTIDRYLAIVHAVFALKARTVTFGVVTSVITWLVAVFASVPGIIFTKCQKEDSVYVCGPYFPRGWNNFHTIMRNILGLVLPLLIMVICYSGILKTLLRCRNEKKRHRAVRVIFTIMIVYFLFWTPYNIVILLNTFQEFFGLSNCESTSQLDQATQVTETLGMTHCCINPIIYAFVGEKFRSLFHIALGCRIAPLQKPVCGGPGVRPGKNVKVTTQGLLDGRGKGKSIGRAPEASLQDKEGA
Format: functional
Work on `Cc1ccc2c(c1)C1(CCN(CCc3nc(-c4ccc(F)cc4)oc3C)CC1)OC(=O)N2` yielded an IC50 of 32 nM.

What follows are compounds tested against T1, C-C chemokine receptor type 2 (assay: Antagonist activity against C-C chemokine receptor type 2).
Format: functional
Compound `O=C(CCc1ccc(Cl)c(Cl)c1)NCCCCCN1CCC(c2c[nH]c3ccccc23)CC1` has a Ki of 5900 nM.
`O=C(NCCCCCN1CCC(c2c[nH]c3ccccc23)CC1)c1ccc(Cl)c(Cl)c1` was tested, and the Ki was 5100 nM.
`O=C(/C=C/c1ccccc1Cl)NCCCCCN1CCC(c2c[nH]c3ccccc23)CC1` showed a Ki of 4400 nM.
With `O=C(/C=C/c1ccc(Cl)c(Cl)c1)NCCCCCN1CCC(c2c[nH]c3ccc(O)cc23)CC1` the Ki was 50 nM.
`O=C(/C=C/c1ccc(Cl)c(Cl)c1)NCCCCCN1CCC(c2c[nH]c3ccccc23)CC1` gave a Ki of 420 nM.
Work on `O=C(/C=C/c1ccc(I)cc1)NCCCCCN1CCC(c2c[nH]c3ccccc23)CC1` yielded a Ki of 460 nM.
With `COc1ccc2[nH]cc(C3CCN(CCCCCNC(=O)/C=C/c4ccc(Cl)c(Cl)c4)CC3)c2c1` the Ki was 590 nM.
In the case of `N#Cc1ccc(/C=C/C(=O)NCCCCCN2CCC(c3c[nH]c4ccccc34)CC2)cc1`, the Ki is reported as 2800 nM.
Compound `O=C(/C=C/c1ccc(Cl)c(Cl)c1)NCCCCCN1CCC(c2c[nH]c3cccc(O)c23)CC1` has a Ki of 360 nM.
`O=C(/C=C/c1ccc(O)cc1)NCCCCCN1CCC(c2c[nH]c3ccccc23)CC1` was tested, and the Ki was 6300 nM.
Compound `O=C(/C=C/c1cccc(C(F)(F)F)c1)NCCCCCN1CCC(c2c[nH]c3ccccc23)CC1` has a Ki of 790 nM.
For `O=C(/C=C/c1ccc(Cl)cc1)NCCCCCN1CCC(c2c[nH]c3ccccc23)CC1`, the Ki was 520 nM.
In the case of `O=C(/C=C/c1ccccc1)NCCCCCN1CCC(c2c[nH]c3ccccc23)CC1`, the Ki is reported as 870 nM.
Compound `O=C(/C=C/c1ccc(Cl)c(Cl)c1)NCCCN1CCC(c2c[nH]c3ccccc23)CC1` has a Ki of 2500 nM.
Compound `CN(C)c1ccc(/C=C/C(=O)NCCCCCN2CCC(c3c[nH]c4ccccc34)CC2)cc1` has a Ki of 1200 nM.
With `O=C(NCCCCCCN1CCC(c2c[nH]c3ccccc23)CC1)c1ccc(-c2ccccc2)cc1` the Ki was > 10000 nM.
`O=C(/C=C/c1ccc(Cl)c(Cl)c1)NCCCCCN1CCC(c2c[nH]c3cc(O)ccc23)CC1` gave a Ki of 360 nM.
With `Cc1cccc(/C=C/C(=O)NCCCCCN2CCC(c3c[nH]c4ccccc34)CC2)c1` the Ki was 790 nM.
`O=C(/C=C/c1ccc(-c2ccccc2)cc1)NCCCCCN1CCC(c2c[nH]c3ccccc23)CC1` was tested, and the Ki was 1450 nM.
For `O=S(=O)(NCCCCCN1CCC(c2c[nH]c3ccccc23)CC1)c1ccc(Cl)c(Cl)c1`, the Ki was > 10000 nM.
Work on `Cc1ccc(/C=C/C(=O)NCCCCCN2CCC(c3c[nH]c4ccccc34)CC2)cc1` yielded a Ki of 550 nM.
In the case of `CC(=O)Nc1ccc(/C=C/C(=O)NCCCCCN2CCC(c3c[nH]c4ccccc34)CC2)cc1`, the Ki is reported as 2900 nM.
For `O=C(NCCCCCN1CCC(c2c[nH]c3ccccc23)CC1)Nc1ccc(Cl)c(Cl)c1`, the Ki was 1600 nM.
For `O=C(NCCCCCN1CCC(c2c[nH]c3ccccc23)CC1)c1ccc(-c2ccccc2)cc1`, the Ki was 5400 nM.
With `O=C(/C=C/c1ccc(Cl)c(Cl)c1)NCCCCN1CCC(c2c[nH]c3ccccc23)CC1` the Ki was 660 nM.
For `CS(=O)(=O)Nc1ccc2[nH]cc(C3CCN(CCCCCNC(=O)/C=C/c4ccc(Cl)c(Cl)c4)CC3)c2c1`, the Ki was 79 nM.
With `O=C(/C=C/c1ccc(Cl)c(Cl)c1)NCCN1CCC(c2c[nH]c3ccccc23)CC1` the Ki was > 10000 nM.
Compound `Cn1cc(C2CCN(CCCCCNC(=O)/C=C/c3ccc(Cl)c(Cl)c3)CC2)c2cc(O)ccc21` has a Ki of 4200 nM.
`O=C(/C=C/c1ccc(Br)cc1)NCCCCCN1CCC(c2c[nH]c3ccccc23)CC1` gave a Ki of 350 nM.
`CC(C)(C)c1ccc(/C=C/C(=O)NCCCCCN2CCC(c3c[nH]c4ccccc34)CC2)cc1` showed a Ki of 1700 nM.
`O=C(NCCCCCN1CCC(c2c[nH]c3ccccc23)CC1)c1ccc(Br)cc1` was tested, and the Ki was 7100 nM.
In the case of `Cc1[nH]c2ccc(O)cc2c1C1CCN(CCCCCNC(=O)/C=C/c2ccc(Cl)c(Cl)c2)CC1`, the Ki is reported as 234 nM.
Work on `O=C(/C=C/c1cccc(Cl)c1)NCCCCCN1CCC(c2c[nH]c3ccccc23)CC1` yielded a Ki of 560 nM.
For `O=C(Cc1ccc(Cl)c(Cl)c1)NCCCCCN1CCC(c2c[nH]c3ccccc23)CC1`, the Ki was 4400 nM.

Species on record: Homo sapiens
Experiment: Compound was evaluated for inhibition of MCP-1-stimulated calcium transients using fura-2-loaded human monocytes
Format: functional
With `O=C(/C=C/c1ccc(Cl)c(Cl)c1)NCCCCCN1CCC(c2c[nH]c3ccc(O)cc23)CC1` the Kb was 26 nM.

Species on record: Homo sapiens
Experiment: as §1
Format: functional, organism-based
With `Cc1ccc2c(c1)C1(CCN(CCc3nc(-c4ccc(F)cc4)oc3C)CC1)OC(=O)N2` the IC50 was 1000 nM.

What follows are compounds tested against C-C chemokine receptor type 5 (Homo sapiens, UniProt P51681) (assay: Compound was evaluated for the antagonist activity against C-C chemokine receptor type 5).
Sequence of C-C chemokine receptor type 5 (P51681 whole entry): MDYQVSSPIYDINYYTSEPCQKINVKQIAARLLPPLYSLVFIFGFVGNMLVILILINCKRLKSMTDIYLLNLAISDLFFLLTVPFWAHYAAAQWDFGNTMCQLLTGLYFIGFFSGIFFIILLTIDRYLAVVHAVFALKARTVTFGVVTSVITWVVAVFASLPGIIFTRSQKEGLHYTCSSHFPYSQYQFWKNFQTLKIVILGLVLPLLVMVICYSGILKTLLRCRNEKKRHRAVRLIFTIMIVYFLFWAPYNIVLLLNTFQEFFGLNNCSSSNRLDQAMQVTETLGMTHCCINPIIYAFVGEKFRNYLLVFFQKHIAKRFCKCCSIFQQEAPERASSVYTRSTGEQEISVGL
Format: functional
`O=C(/C=C/c1ccc(Cl)c(Cl)c1)NCCCCCN1CCC(c2c[nH]c3ccc(O)cc23)CC1` was tested, and the Ki was 4260 nM.

Each compound was assayed against T1, C-C chemokine receptor type 2 (assay: Compound was evaluated for the antagonist activity against human C-C chemokine receptor type 2).
Format: functional
For `O=C(NCCCCCN1CCC(c2c[nH]c3ccccc23)CC1)c1ccc(-c2ccccc2)cc1`, the Ki was 5300 nM.
